Measurements taken from patent US6737383B1, “Herbicidal oxadiazolidines” (priority 1999, dated 2004).

Experiments:
rice = experiment: Test B flood test rice; type: in vivo, Oryza sativa
Method in brief: (§1)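 Plants were grown to the 2-leaf stage before treatment with test chemical, then held in a greenhouse for twelve to sixteen days. Injury was visually rated against untreated controls on a 0–10 scale, where 0 is no effect and 10 is complete control.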

velvetleaf = experiment: Test B pre/postemergence velvetleaf; type: in vivo, Abutilon theophrasti; details: for Plant response rating, Velvetleaf: scale of 0 to 10 where 0 is no effect and 10 is complete control
Method in brief: (§2)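 Herbicidal effect was estimated by eye on a ten-point control scale after plants spent twelve to sixteen days in a greenhouse following soil or foliar treatment. Foliar sprays targeted plants at one to four leaves; all doses were formulated in a non-phytotoxic solvent with surfactant.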

smallflower flatsedge = experiment: Test B flood test smallflower flatsedge; type: in vivo, Cyperus difformis
Method in brief: as §1

duck salad = experiment: Test B flood test duck salad; type: in vivo, Heteranthera limosa
Method in brief: as §1

sugar beet = experiment: Test B pre/postemergence sugar beet; type: in vivo, Beta vulgaris; details: for Plant response rating, Sugarbeets: scale of 0 to 10 where 0 is no effect and 10 is complete control
Method in brief: as §2

soybean = experiment: Test B pre/postemergence soybean; type: in vivo, Glycine max; details: for Plant response rating, Soybean: scale of 0 to 10 where 0 is no effect and 10 is complete control
Method in brief: as §2

cocklebur = experiment: Test B pre/postemergence cocklebur; type: in vivo, Xanthium strumarium
Method in brief: as §2

wheat = experiment: Test B pre/postemergence wheat; type: in vivo, Triticum aestivum; details: for Plant response rating, Wheat: scale of 0 to 10 where 0 is no effect and 10 is complete control
Method in brief: as §2

pigweed = experiment: Test B pre/postemergence pigweed; type: in vivo, Amaranthus retroflexus; details: for Plant response rating, Redroot pigweed: scale of 0 to 10 where 0 is no effect and 10 is complete control
Method in brief: as §2

morningglory = experiment: Test B pre/postemergence morningglory; type: in vivo, Ipomoea hederacea; details: for Plant response rating, Morningglory: scale of 0 to 10 where 0 is no effect and 10 is complete control
Method in brief: as §2

bamyardgrass = experiment: Test B flood test barnyardgrass; type: in vivo, Echinochloa crus-galli
Method in brief: as §1

blackgrass = experiment: Test B pre/postemergence blackgrass; type: in vivo, Alopecurus myosuroides
Method in brief: as §2

wild oat = experiment: Test B pre/postemergence wild oat; type: in vivo, Avena fatua; details: for Plant response rating, Wild oats: scale of 0 to 10 where 0 is no effect and 10 is complete control
Method in brief: as §2

giant foxtail = experiment: Test B pre/postemergence giant foxtail; type: in vivo, Setaria faberii
Method in brief: as §2

purple nutsedge = experiment: Test B pre/postemergence purple nutsedge; type: in vivo, Cyperus rotundus; details: for Plant response rating, Nutsedge: scale of 0 to 10 where 0 is no effect and 10 is complete control
Method in brief: as §2

rape = experiment: Test B pre/postemergence rape; type: in vivo, Brassica napus; details: for Plant response rating, Rape: scale of 0 to 10 where 0 is no effect and 10 is complete control
Method in brief: as §2

[1] = Rate 62 g/ha, flood test species, Pre-emergence, visual evaluation after twelve to sixteen days
[2] = Rate 125 g/ha, under heading Pre-emergence, flood test species, visual evaluation after twelve to sixteen days
[3] = Rate 250 g/ha, Pre-emergence (flood test species), scale 0 to 10, 0 is no effect, 10 is complete control
[4] = Rate 500 g/ha, Pre-emergence, flood test species, scale 0 to 10 (0 no effect, 10 complete control)
[5] = Postemergence, Rate 250 g/ha, scale 0 to 10
[6] = Preemergence, Rate 250 g/ha, scale 0 to 10, 0 is no effect, 10 is complete control
[7] = Preemergence, Rate 500 g/ha, scale 0 to 10, 0 is no effect, 10 is complete control
[8] = Rate 62 g/ha, Postemergence, scale 0 to 10 (0 no effect, 10 complete control)
[9] = Rate 125 g/ha, Postemergence, scale 0 to 10, 0 is no effect, 10 is complete control
[10] = Postemergence, Rate 500 g/ha, scale of 0 to 10 where 0 is no effect and 10 is complete control
[11] = Preemergence, Rate 62 g/ha, scale of 0 to 10 where 0 is no effect and 10 is complete control
[12] = Preemergence, Rate 125 g/ha, scale of 0 to 10 where 0 is no effect and 10 is complete control

CC(C)N(C(=O)n1oc(=O)n(CO)c1=O)c1ccc(Cl)cc1 [Compound 457]
8: Giant foxtail plant response rating (giant foxtail; [7])
0: Plant response rating, Rice (0 to 10 scale, 0 is no effect, 10 is complete control) (rice; [1]) | Rice plant response rating (0 to 10 scale, 0 is no effect, 10 is complete control) (rice; [2]) | Rice plant response rating (rice; [3]) | Rice plant response rating (rice; [4]) | Velvetleaf plant response rating (velvetleaf; [5]) | Plant response rating, Velvetleaf (velvetleaf; Preemergence, Rate 62 g/ha) | Plant response rating, Velvetleaf (velvetleaf; Preemergence, Rate 125 g/ha) | Velvetleaf plant response rating (velvetleaf; [6]) | Velvetleaf plant response rating (velvetleaf; [7]) | Velvetleaf plant response rating (velvetleaf; [8]) | Velvetleaf plant response rating (velvetleaf; [9]) | Plant response rating, S. Flatsedge (0 to 10 scale, 0 is no effect, 10 is complete control) (smallflower flatsedge; [1]) | S. Flatsedge plant response rating (0 to 10 scale, 0 is no effect, 10 is complete control) (smallflower flatsedge; [2]) | S. Flatsedge plant response rating (smallflower flatsedge; [3]) | S. Flatsedge plant response rating (smallflower flatsedge; [4]) | Plant response rating, Ducksalad (0 to 10 scale, 0 is no effect, 10 is complete control) (duck salad; [1]) | Ducksalad plant response rating (0 to 10 scale, 0 is no effect, 10 is complete control) (duck salad; [2]) | Ducksalad plant response rating (duck salad; [3]) | Ducksalad plant response rating (duck salad; [4]) | Sugarbeets plant response rating (sugar beet; [5]) | Plant response rating, Sugarbeets (sugar beet; Preemergence, Rate 62 g/ha) | Plant response rating, Sugarbeets (sugar beet; Preemergence, Rate 125 g/ha) | Sugarbeets plant response rating (sugar beet; [6]) | Sugarbeets plant response rating (sugar beet; [7]) | Sugarbeets plant response rating (sugar beet; [8]) | Sugarbeets plant response rating (sugar beet; [9]) | Plant response rating, Soybean (soybean; Preemergence, Rate 62 g/ha) | Plant response rating, Soybean (soybean; Preemergence, Rate 125 g/ha) | Soybean plant response rating (soybean; [6]) | Soybean plant response rating (soybean; [7]) | Soybean plant response rating (soybean; [8]) | Soybean plant response rating (soybean; [9]) | Cocklebur plant response rating (cocklebur; [5]) | Cocklebur plant response rating (cocklebur; [10]) | Plant response rating, Cocklebur (cocklebur; [11]) | Plant response rating, Cocklebur (cocklebur; [12]) | Cocklebur plant response rating (cocklebur; [6]) | Cocklebur plant response rating (cocklebur; [7]) | Cocklebur plant response rating (cocklebur; [8]) | Cocklebur plant response rating (cocklebur; [9]) | Wheat plant response rating (wheat; [5]) | Plant response rating, Wheat (wheat; Preemergence, Rate 62 g/ha) | Plant response rating, Wheat (wheat; Preemergence, Rate 125 g/ha) | Wheat plant response rating (wheat; [6]) | Wheat plant response rating (wheat; [7]) | Wheat plant response rating (wheat; [8]) | Wheat plant response rating (wheat; [9]) | Redroot pigweed plant response rating (pigweed; [5]) | Plant response rating, Redroot pigweed (pigweed; Preemergence, Rate 62 g/ha) | Plant response rating, Redroot pigweed (pigweed; Preemergence, Rate 125 g/ha) | Redroot pigweed plant response rating (pigweed; [6]) | Redroot pigweed plant response rating (pigweed; [7]) | Redroot pigweed plant response rating (pigweed; [8]) | Redroot pigweed plant response rating (pigweed; [9]) | Morningglory plant response rating (morningglory; [5]) | Plant response rating, Morningglory (morningglory; Preemergence, Rate 62 g/ha) | Plant response rating, Morningglory (morningglory; Preemergence, Rate 125 g/ha) | Morningglory plant response rating (morningglory; [6]) | Morningglory plant response rating (morningglory; [7]) | Morningglory plant response rating (morningglory; [8]) | Morningglory plant response rating (morningglory; [9]) | Plant response rating, Barnyardgrass (0 to 10 scale, 0 is no effect, 10 is complete control) (bamyardgrass; [1]) | Barnyardgrass plant response rating (0 to 10 scale, 0 is no effect, 10 is complete control) (bamyardgrass; [2]) | Barnyardgrass plant response rating (bamyardgrass; [3]) | Barnyardgrass plant response rating (bamyardgrass; [4]) | Blackgrass plant response rating (blackgrass; [5]) | Blackgrass plant response rating (blackgrass; [10]) | Plant response rating, Blackgrass (blackgrass; [11]) | Plant response rating, Blackgrass (blackgrass; [12]) | Blackgrass plant response rating (blackgrass; [6]) | Blackgrass plant response rating (blackgrass; [7]) | Blackgrass plant response rating (blackgrass; [8]) | Blackgrass plant response rating (blackgrass; [9]) | Wild oats plant response rating (wild oat; [5]) | Plant response rating, Wild oats (wild oat; Preemergence, Rate 62 g/ha) | Plant response rating, Wild oats (wild oat; Preemergence, Rate 125 g/ha) | Wild oats plant response rating (wild oat; [6]) | Wild oats plant response rating (wild oat; [7]) | Wild oats plant response rating (wild oat; [8]) | Wild oats plant response rating (wild oat; [9]) | Giant foxtail plant response rating (giant foxtail; [5]) | Giant foxtail plant response rating (giant foxtail; [10]) | Plant response rating, Giant foxtail (giant foxtail; [11]) | Plant response rating, Giant foxtail (giant foxtail; [12]) | Giant foxtail plant response rating (giant foxtail; [6]) | Giant foxtail plant response rating (giant foxtail; [8]) | Giant foxtail plant response rating (giant foxtail; [9]) | Nutsedge plant response rating (purple nutsedge; [5]) | Plant response rating, Nutsedge (purple nutsedge; Preemergence, Rate 62 g/ha) | Plant response rating, Nutsedge (purple nutsedge; Preemergence, Rate 125 g/ha) | Nutsedge plant response rating (purple nutsedge; [6]) | Nutsedge plant response rating (purple nutsedge; [7]) | Nutsedge plant response rating (purple nutsedge; [8]) | Nutsedge plant response rating (purple nutsedge; [9]) | Rape plant response rating (rape; [5]) | Plant response rating, Rape (rape; Preemergence, Rate 62 g/ha) | Plant response rating, Rape (rape; Preemergence, Rate 125 g/ha) | Rape plant response rating (rape; [6]) | Rape plant response rating (rape; [7]) | Rape plant response rating (rape; [8]) | Rape plant response rating (rape; [9])
1: Soybean plant response rating (soybean; [5])
